Measured values reported in patent US20230090439A1, “PHARMACEUTICAL COMPOSITION FOR CONTROLLING PARASITES ON NON-HUMAN ORGANISMS” (priority 2020, published 2023).
One block for each compound: values may come before it.

Assay: Solubility experiments (saturation solubility in solvents, HPLC-UV of supernatant)
Assay type: physicochemical
Conditions: for Solubility in the solvent mixture of the composition according to the invention (in words): isopropanol/propylene carbonate 65:35, room temperature
Excerpt: Dissolution experiments for active ingredients I-1, I-2, I-3 and I-4 in solvents for a pharmaceutical composition according to the invention are presented below. For biological effect, the active ingredient should be incorporated at a certain dose or amount in the formulation, in the ideal case it should be a solution in the formulation such that the active ingredient is therefore dissolved in the solvent. A certain minimum solubility is required for the solvent since the application volume is limited.
In this case, 10 g of the appropriate solvent or solvent mixture were initially charged and as much active ingredient was added until the solution is saturated. Isopropanol (IPA) and propylene carbonate (PPC) were used as solvents. The samples were stirred for 3 days. Should the active ingredient become fully dissolved, active ingredient was again added. Subsequently, the samples were stored for a further 4 days at the relevant temperature and centrifuged in order to remove the undissolved particles. The supernatants were analyzed in each case for active ingredient content by HPLC-UV.
Furthermore, solubility experiments with three further active ingredients from the class of fluorinated heteroarylamides in different solvents were carried out. The solubility experiments were carried out analogously to the experiments described above, however only at room temperature and the solvent mixture isopropanol/propylene carbonate 65:35% [m/m] was selected.
Experiments with solvent systems were also carried out in which the first solvent comprised two alcohols.

[1] = Isopropanol, room temperature (Table 2)
[2] = Isopropanol/propylene carbonate 65/35, room temperature (Table 2)
[3] = Propylene carbonate, room temperature (Table 2)

Saturation solubility (Ethanol (Table 3)): 2.76 % [ w/w]
Saturation solubility (Ethanol/glycerol carbonate 65:35 (Table 3)): 6.48 % [ w/w]
Saturation solubility (Ethanol/propylene carbonate 65:35 (Table 3)): 9.45 % [ w/w]
Solubility (Ethanol/propylene carbonate/glycerol carbonate 65:17.5:17.5): >5 % [w/w]
Saturation solubility (Glycerol carbonate (Table 3)): 0.15 % [ w/w]
Saturation concentration of the solution (IPA/PPC 25/75 23° C.): 7.58 %[w/w]
Saturation concentration of the solution (IPA/PPC 35/65 23° C.): 8.79 %[w/w]
Saturation concentration of the solution (IPA/PPC 50/50 23° C.): 9.26 %[w/w]
Saturation concentration of the solution (IPA/PPC 60/40 23° C.): 8.60 %[w/w]
Saturation concentration of the solution (IPA/PPC 65/35 5° C.): 6.32 %[w/w]
Saturation concentration of the solution (IPA/PPC 65/35 23° C.): 8.31 %[w/w]
Saturation concentration of the solution (IPA/PPC 70/30 23° C.): 7.49 %[w/w]
Saturation concentration of the solution (IPA/PPC 75/25 23° C.): 6.70 %[w/w]
Saturation concentration of the solution (IPA/PPC 80/20 23° C.): 5.90 %[w/w]
Saturation concentration of the solution (IPA/PPC 90/10 23° C.): 3.74 %[w/w]
Saturation concentration of the solution (Isopropanol 5° C.): 0.98 %[w/w]
Saturation concentration of the solution (Isopropanol 23° C.): 1.56 %[w/w]
Saturation solubility (Isopropanol (Table 3)): 1.56 % [ w/w]
Solubility (Isopropanol/ethanol/glycerol carbonate 32.5:32.5:35): >5 % [w/w]
Solubility (Isopropanol/ethanol/propylene carbonate 32.5:32.5:35): >5 % [w/w]
Saturation solubility (Isopropanol/glycerol carbonate 65:35 (Table 3)): 5.98 % [ w/w]
Solubility (Isopropanol/propylene carbonate/glycerol carbonate 65:17.5:17.5): >5 % [w/w]
Saturation concentration of the solution (Propylene carbonate 5° C.): 1.80 %[w/w]
Saturation concentration of the solution (Propylene carbonate 23° C.): 2.43 %[w/w]
Saturation solubility (Propylene carbonate (Table 3)): 2.43 % [ w/w]
Solubility in the mixture of isopropanol and propylene carbonate compared to the pure solvents (in words) (mixture of isopropanol and propylene carbonate vs pure solvents): significant solubility increase
Solubility in the solvent systems of Table 4 (in words) (three-component alcohol/carbonate solvent systems of Table 4): good solubilities
Structure (SMILES): CN(C(=O)c1cc(-c2cnn(-c3c(Cl)cc(C(F)(C(F)(F)F)C(F)(F)F)cc3Cl)c2)cnc1Cl)C1CC1 [I-1, 2-chloro-N-cyclopropyl-5-[1-[2,6-dichloro-4-[1,2,2,2-tetrafluoro-1-(trifluoromethyl)-ethyl]phenyl]pyrazol-4-yl]-N-methylpyridine-3-carboxamide]

Saturation solubility [1]: 6.99 % [w/w]
Saturation solubility [2]: 24.20 % [w/w]
Saturation solubility [3]: 5.34 % [w/w]
Solubility in the solvent mixture of the composition according to the invention (in words): very good solubilities
Structure (SMILES): O=C(NC1CC1)c1cc(-c2cnn(-c3c(Cl)cc(C(F)(C(F)(F)F)C(F)(F)F)cc3OC(F)(F)F)c2)cnc1Cl [I-2]

Saturation solubility [1]: 4.18 % [w/w]
Saturation solubility [2]: 17.57 % [w/w]
Saturation solubility [3]: 4.89 % [w/w]
Solubility in the solvent mixture of the composition according to the invention (in words): very good solubilities
Structure (SMILES): O=C(NC1CC1)c1cc(-c2cnn(-c3c(Cl)cc(C(F)(C(F)(F)F)C(F)(F)F)cc3C(F)(F)F)c2)cnc1Cl [I-3, 2-chloro-5-[1-[2-chloro-4-[1,2,2,2-tetrafluoro-1-(trifluoromethyl)ethyl]-6-(trifluoromethyl)phenyl]-1H-pyrazol-4-yl]-N-cyclopropyl-3-pyridinecarboxamide]

Saturation solubility [1]: 13.42 % [w/w]
Saturation solubility [2]: 29.38 % [w/w]
Saturation solubility [3]: 11.76 % [w/w]
Solubility in the solvent mixture of the composition according to the invention (in words): very good solubilities
Structure (SMILES): O=C(NC1CC1)c1cc(-c2cnn(-c3c(Br)cc(C(F)(C(F)(F)F)C(F)(F)F)cc3OC(F)(F)F)c2)cnc1Cl [I-4]
